Reference: BindingDB's records for patent US10143681 (Merck Sharp & Dohme, 2018)

Biological target: Plasma kallikrein (Homo sapiens, UniProt P03952)
Experiment: Kallikrein Assay
Experimental: The effectiveness of a compound of the present invention as an inhibitor of Kallikrein can be determined using a relevant purified serine protease, and an appropriate synthetic substrate. The rate of hydrolysis of the chromogenic or fluorogenic substrate by the relevant serine protease was measured both in the absence and presence of compounds of the present invention. Assays were conducted at room temperature or at 37° C. […] A decrease in the rate of fluorescence change in the presence of inhibitor is indicative of enzyme inhibition. Such methods are known to one skilled in the art. […] Times required to achieve equilibration between enzyme and inhibitor were determined in control experiments. […] IC50 was determined by inflection point from a four parameter logistic curve fit. Ki was calculated using the Cheng Prusoff equation, Ki=IC50/(1+([S]/Km)).

Sequence of Plasma kallikrein (P03952 20-390 limits assumed): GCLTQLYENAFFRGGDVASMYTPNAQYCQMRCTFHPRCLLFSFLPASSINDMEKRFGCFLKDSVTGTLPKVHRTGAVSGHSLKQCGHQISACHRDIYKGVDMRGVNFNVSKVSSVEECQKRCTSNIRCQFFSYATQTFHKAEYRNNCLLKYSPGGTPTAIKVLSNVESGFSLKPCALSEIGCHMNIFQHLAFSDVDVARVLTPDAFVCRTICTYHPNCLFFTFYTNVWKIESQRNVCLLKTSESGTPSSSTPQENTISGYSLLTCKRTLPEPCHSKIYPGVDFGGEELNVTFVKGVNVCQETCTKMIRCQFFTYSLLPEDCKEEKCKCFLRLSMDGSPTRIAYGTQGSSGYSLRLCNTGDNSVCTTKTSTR
Sequence of Plasma kallikrein (P03952 391-638 limits assumed): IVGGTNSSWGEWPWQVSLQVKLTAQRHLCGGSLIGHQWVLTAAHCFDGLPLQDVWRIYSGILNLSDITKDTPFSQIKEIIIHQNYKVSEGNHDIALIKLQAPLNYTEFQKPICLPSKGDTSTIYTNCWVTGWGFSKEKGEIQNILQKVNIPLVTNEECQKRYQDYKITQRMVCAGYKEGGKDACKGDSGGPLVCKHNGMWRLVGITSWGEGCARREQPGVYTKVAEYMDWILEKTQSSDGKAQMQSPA

IC50: 42 nM
Structure (SMILES): COc1cc([C@@H](CC2CC2)C(=O)Nc2ccc(C(=O)O)cc2)[n+]([O-])cc1-c1c(C(F)F)ccc(Cl)c1F [US10143681, Example 69]
